Results: patent publication US11311576B2, “Methods of use for CAR T cells” (Seattle Children's Hospital, priority 2018, dated 2022)

How the values were obtained:
[1] = target: T1, FRβ (CHO-b) (Homo sapiens, UniProt P14207); experiment: 3H-EC17 cell-based radioligand binding assay, CHO-β cells; settings: 2 h at 37° C.
T1 construct: expressed in transfected cells; host or cells: CHO (Chinese hamster ovary) cells
Description: The bispecific affinities of EC17 CAM were assessed using ^3H-EC17 in cell-based radioligand binding assays. For binding to FR+ targets, KB and CHO-β cells were pre-seeded overnight in 24-well tissue culture plates and incubated with 0.1, 0.5, 1, 5, 10, 20, and 40 nM of ^3H-EC17 in FFRPMI for 2 h at 37° C. Afterwards, the cells were rinsed with phosphate-buffered saline (PBS, pH 7.4) and lysed with 1% sodium dodecylsulfate. The whole cell lysates were quantitated for the level of radioactivity and cellular protein content by standard Pierce BCA protein assay. The number of ^3H-EC17 molecules bound per cell was calculated to determine the dissociation constants (Kd) for FRα (KB) and FRβ (CHO-b) respectively (FIG. 56A, FIG. 56B).

[2] = EC17/E2-CAR T-cell therapy in naïve NSG mice without tumor; format: in vivo; settings: 10 million E2 CAR-T cells, EC17 500 nmol/kg x2 doses
Description: EGFRt-sorted anti-FITC E2 scFv-CAR T cells were frozen in a T-cell freezing medium. Vials of frozen CAR-T cells were immediately stored at −80° C. The CAR-T cells were quickly thawed at 37° C., washed twice with PBS, and used for animal injection at 10 million viable EGFRt+E2 CAR-T cells (CD4/CD8 at ˜1:1) per animal. A small aliquot was taken on the day infusion for flow cytometric analysis of E2-CAR T-cell phenotypes.
Mouse blood samples were processed for plasma and stored at −20° C. until use. A human TH1 cytokine panel (Biolegend, Cat. No. 740009) and a human hematopoietic stem cell cytokine panel (Biolegend, Cat. No. 740610) was used to detect human cytokines in the mouse blood. […]
Whole blood cell analysis: Plasma was removed from predetermined volumes of whole EDTA treated blood and RBCs were lysed with RBC lysis solution. […] Determination of the concentration of CAR T cells in each blood sample was calculated according to Invitrogen's instructions. CAR T cells were identified as human CD3ε+ EGFRt+ events and easily distinguished and counted using the Kaluza™ flow cytometry software. The number of CAR T cells in the circulation of each infused mouse was then represented on the graphs as the total number of CAR T cells per 100 μL of whole blood analyzed. Statistical significance was determined by utilizing an unpaired, two-tailed, students t30 test with significance set at p<0.05. […]

[3] = tested on: MDA-MB-231 tumor; experiment: Kinetics of CAR-T cell expansion and tumor uptake in MDA-MB-231 tumor bearing mice; format: in vivo, NSG mice
Description: When the tumor sizes averaged at ˜350±60 mm^3 on day 2, up to […] of EC17 at 500 nmol/kg were given on days 2, 9, 16, 23, and 30. For ex-vivo analysis, 3 animals were taken before the next EC17 dose on days 9, 16, 23, and 30 for a total of 4 collections. For comparison, the same EC17 dose was given to 3 CAR-T mice that had ˜4.4× larger tumor sizes on day 2 (˜1555±79 mm3). For each collection, fresh blood and tumor samples (if available) were analyzed for the presence of human CD3e+ EGFRt+ CAR-T cells by flow cytometry.
For CAR-T cell analysis in the circulation, plasma was removed from a predetermined volume of whole blood collected into tubes containing ethylenediaminetetraacetic acid anticoagulant. […] A minimum of 20,000 propidium iodide negative live cell events were collected on the Gallios flow cytometer and analyzed with the Kaluza software, version 2.1 (Beckman Coulter, Brea, Calif.). CAR-positive T cells were identified in mouse blood as human CD3e+ EGFRt+ events and absolute numbers per volume of blood were calculated using equal numbers of CountBright™ beads (Invitrogen, Carlsbad, Calif.) added to each sample. The number of tumor-infiltrating CD3ε+ EGFRt+ CAR-T cells was expressed as % total viable tumor cells analyzed.

T1 sequence (P14207 17-230): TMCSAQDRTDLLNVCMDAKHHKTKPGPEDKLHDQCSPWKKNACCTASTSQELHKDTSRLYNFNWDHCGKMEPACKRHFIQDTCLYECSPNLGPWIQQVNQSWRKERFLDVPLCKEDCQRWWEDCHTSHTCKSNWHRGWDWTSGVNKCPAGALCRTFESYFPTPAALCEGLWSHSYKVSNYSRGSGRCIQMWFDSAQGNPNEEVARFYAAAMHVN

NC1=NC2N=CC(CNc3ccc(C(=O)N[C@@H](CCC(=O)NCCNC(=S)Nc4ccc(-c5c6ccc(=O)cc-6oc6cc(O)ccc56)c(C(=O)O)c4)C(=O)O)cc3)=NC2C(=O)N1 (stereo partly shown) [EC17, FA-(g)-ethylenediamine-FITC]
Kd [1]: 0.8 nM | IFN-g production, difference between tumor-free and MDA-MB-231 tumor-bearing mice [2]: 23 fold | body weight loss ([3]; ~4.8 million E2-CAR-T cells, after EC17 administration, especially third dose): mild body weight loss | tumor response ([3]; ~4.8 million EGFRt-sorted E2-CAR-T cells, weekly EC17 500 nmol/kg): started to respond after the second EC17 dose
